Converted amounts (≈) assume the structure as drawn. One block for each compound: values may come before it.
Tests used:
[1] = Solubility of amorphous Compound (I) in pH 1.2 SGF, turbidimetric method (Test I); format: physicochemical; details: 37° C.
Experimental: 10 μL of the stock solution was rapidly injected into 990 μL of stabilizer solution containing 0.2% w/w PVPK30 and 0.2% w/w Pluronic F127 and 0.25 mM SDS aqueous solution under a few seconds of ultrasonic treatment to make a 1 mM amorphous nanosuspension. This formulation is further diluted to 0.25 mM with purified water.
The bulk concentration in equilibrium with amorphous particles is determined at 37° C. by a turbidimetric method (described in Lindfors et. al., Langmuir, 2006, 22(3), 911-916). Small volumes of drug suspension are successively added directly to a fluorescence cuvette containing 2000 μL simulated gastric fluid pH 1.2 (SGF) and are then mixed to give the desired concentrations. The light scattering intensity at 700 nm is recorded at a scattering angle of 90° as a function of total drug concentration. As a light scattering setup, a Perkin-Elmer LS 55 Luminescence Spectrometer is used, setting both the emission and excitation wavelengths to 700 nm. Slit excitation is set to 2.5 nm and slit emission is set to 5 nm. Particles are allowed to dissolve for at least 30 seconds prior to measurements starting. Data are then collected for 1 minute and a mean light scattering intensity is calculated. The solubility examination was performed within 45 min of the formation of the amorphous nanosuspension.
At low concentrations the particles dissolve, while at concentrations above the solubility, the particles remain suspended, leading to an almost linear increase in light scattering intensity as a function of total concentration.

[2] = Solubility (pH 7.4) (Test F); format: physicochemical; details: pH 7.4, aqueous buffer
Experimental: Solubility (pH 7.4) (Test F)
The assay was conducted according to the Solubility Assay described in pages 164-167 of Wernevik, J. et al., “A Fully Integrated Assay Panel for Early Drug Metabolism and Pharmacokinetics Profiling”, Assay and Drug Development Technologies, 2020, 18(4), 157-179. Where the assay was run multiple times for the same compound, the arithmetic mean is reported.

Human Plasma Protein = Human Plasma Protein Binding (Test B); format: in vitro ADME; details: fraction unbound (fu)
Experimental: Human Plasma Protein Binding (Test B)
The assay was conducted according to the Human Plasma Protein Binding Assay described in pages 167-170 of Wernevik, J. et al., “A Fully Integrated Assay Panel for Early Drug Metabolism and Pharmacokinetics Profiling”, Assay and Drug Development Technologies, 2020, 18(4), 157-179. Data are reported in Table 1 as fraction unbound (fu) (% free). Where the assay was run multiple times for the same compound, the arithmetic mean is reported.

[3] = Solubility of crystalline Form A of Compound (I) in pH 1.2 SGF, shake-flask (Test J); format: physicochemical; details: simulated gastric fluid pH 1.2 (SGF), thermodynamic from solid, 37° C., 24 h agitation
Experimental: Crystalline solubility in simulated gastric fluid pH 1.2 (SGF) was measured using a miniaturized shake-flask method (24 h agitation at 37° C.).
The samples were agitated at 37° C. for 24 hours in an Eppendorf shaker, agitation speed 1000 rpm. The samples were then centrifuged at 10000 RPM for 15 minutes, 37° C. Approximately 500 μL of the supernatant was withdrawn with automatic pipette to a new vial and centrifuged again for 15 min at 10000 rpm, 37° C. Then from the second centrifugation, samples were taken with automatic pipette to final dilution. pH was measured in the equilibrated remaining sample solution after the second centrifugation. XRPD was used to confirm that no form change had occurred.

human RXFP1 [4] = molecular target: T1, human RXFP1 (Homo sapiens, UniProt Q9HBX9); assay: Human RXFP1 cGMP Production Assay (Test G); format: cell-based; details: HEK293s cells stably transfected with human RXFP1
T1 construct: expressed in transfected cells; host or cells: HEK293s cells, vector pIRESneo3
T1 sequence (Q9HBX9 1-757): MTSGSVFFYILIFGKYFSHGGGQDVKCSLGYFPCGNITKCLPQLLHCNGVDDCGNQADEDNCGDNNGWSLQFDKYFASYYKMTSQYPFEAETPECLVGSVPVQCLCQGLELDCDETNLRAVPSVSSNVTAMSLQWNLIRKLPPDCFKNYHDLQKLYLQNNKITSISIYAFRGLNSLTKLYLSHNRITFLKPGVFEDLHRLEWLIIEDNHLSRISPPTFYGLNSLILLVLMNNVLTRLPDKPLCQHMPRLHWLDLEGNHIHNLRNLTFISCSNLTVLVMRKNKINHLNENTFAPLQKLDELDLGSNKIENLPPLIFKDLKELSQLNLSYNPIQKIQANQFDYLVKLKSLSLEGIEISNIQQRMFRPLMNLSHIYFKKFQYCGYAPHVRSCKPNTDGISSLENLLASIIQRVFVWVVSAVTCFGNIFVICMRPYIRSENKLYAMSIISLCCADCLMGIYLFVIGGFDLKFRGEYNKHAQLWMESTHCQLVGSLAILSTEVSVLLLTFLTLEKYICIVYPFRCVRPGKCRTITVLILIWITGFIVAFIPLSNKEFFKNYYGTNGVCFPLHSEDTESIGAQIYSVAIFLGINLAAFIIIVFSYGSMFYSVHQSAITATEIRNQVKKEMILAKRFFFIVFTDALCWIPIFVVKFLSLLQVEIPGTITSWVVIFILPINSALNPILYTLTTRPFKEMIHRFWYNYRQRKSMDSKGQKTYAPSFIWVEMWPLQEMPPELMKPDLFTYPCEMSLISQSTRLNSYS
Experimental: Human RXFP1 cGMP Production Assay (Test G)
To profile compounds for RXFP1 agonist activity with respect to cGMP production, the Green GENIe cGMP Assay (Montana Molecular; catalogue number D800G) was employed. […] Fluorescence is reduced when cGMP is bound to the biosensor.
(§1) Cells: HEK293s cells stably transfected with human RXFP1 in pIRESneo3 was employed.
• 2. […] Cells and transduction mastermix were mixed in proportions 30 μL cells and 20 μL mastermix for a single well. • 6. […] Plate was incubated in the dark at 37° C., 5% CO2 for 24 h.
• 8. Medium was removed from plates using a Bluewasher (BluCatBio). • 9. 20 μL assay buffer was added with a Multidrop Combi (ThermoFisher). • 10. Plate was incubated in the dark at room temperature for 30 min prior to assaying. • 11. Plates were assayed using a FLIPR Tetra (Molecular Devices): 10 μL compound diluted with assay buffer was added to each well by the FLIPR Tetra and measuring green fluorescence over time for up to 3 h.
After subtraction of background fluorescence (before addition of compounds), area under curve values from 0 to 90 min after compound addition was used for calculation of responses.

human RXFP1 [5] = molecular target: T1, human RXFP1; assay: Human RXFP1 Phospho-ERK Assay (Test H); format: cell-based; details: HEK293s cells stably transfected with human RXFP1; read-out: Test H phospo-ERK assay EC50
Source text: as §1

[6] = cited from earlier work

solubility ([1]; simulated gastric fluid pH 1.2 (SGF), simulated gastric fluid, kinetic from dmso stock, amorphous nanosuspension, extrapolation of light scattering to zero intensity): 8 µM (≈ 4.36 µg/mL)
Mean light scattering intensity ([1]; total concentration 1.2 uM): 0.16 a.u.
Mean light scattering intensity ([1]; total concentration 2.5 uM): 0.28 a.u.
Mean light scattering intensity ([1]; total concentration 3.7 uM): 0.33 a.u.
Mean light scattering intensity ([1]; total concentration 6.1 uM): 0.33 a.u.
Mean light scattering intensity ([1]; total concentration 8.5 uM): 1.71 a.u.
Mean light scattering intensity ([1]; total concentration 10.8 uM): 4.94 a.u.
Mean light scattering intensity ([1]; total concentration 13.0 uM): 8.19 a.u.
Mean light scattering intensity ([1]; total concentration 15.3 uM): 11.77 a.u.
Mean light scattering intensity ([1]; total concentration 17.4 uM): 15.33 a.u.
Mean light scattering intensity ([1]; total concentration 19.6 uM): 18.47 a.u.
solubility [2]: > 500 µM
Test B Human Plasma Protein Binding (% free) (Human Plasma Protein): 4.3 % free
Compound: COc1cc(F)c(O[C@H]2CC[C@@](C)(C(=O)O)CC2)cc1C(=O)N[C@@H]1[C@H]2CC[C@H](C2)[C@@H]1C(=O)NCC1(C)CCC1 [Compound (I), (1S,4s)-4-(2-fluoro-4-methoxy-5-(((1S,2R,3S,4R)-3-(((1-methylcyclobutyl)methyl)carbamoyl)bicyclo[2.2.1]heptan-2-yl)carbamoyl)phenoxy)-1-methylcyclohexane-1-carboxylic acid]

solubility at 24 h [3]: 0.4 µM (≈ 0.218 µg/mL)
Compound: COc1cc(F)c(O[C@H]2CC[C@@](C)(C(=O)O)CC2)cc1C(=O)N[C@@H]1[C@H]2CC[C@H](C2)[C@@H]1C(=O)NCC1(C)CCC1 [Form A of Compound (I), (1S,4s)-4-(2-Fluoro-4-methoxy-5-(((1S,2R,3S,4R)-3-(((1-methylcyclobutyl)methyl)carbamoyl)bicyclo[2.2.1]heptan-2-yl)carbamoyl)phenoxy)-1-methylcyclohexane-1-carboxylic acid]

EC50 (human RXFP1 [4]): 0.085 nM
EC50 (human RXFP1 [5]): 0.038 nM
Compound: relaxin2

Compound: serelaxin
blood pressure drop ([6]; approximately one third of the patients, intravenous): > 40 mm Hg
markers of cardiac, renal and hepatic damage and congestion ([6]; hospitalized patients, continuous intravenous administration): improved
clearance from the patients' circulation ([6]; patients): rapid clearance

From patent US20260240798A1, “SOLID FORMS OF RXFP1 MODULATORS” (ASTRAZENECA AB, priority 2022, published 2026)
